Converted amounts (≈) assume the structure as drawn.
Tested on: not listed separately
Test: Water solubility (24 h stirring in deionized water, HPLC)
Type: physicochemical
Conditions: thermodynamic from solid, stirred 24 hours, read-out: Soluble Concentration
Description: Samples are weighed accurately in duplicate (˜3 mg each) in 4 mL glass vials. The appropriate amount of deionized water is added to obtain a final concentration of 6 mg/mL. A stir bar is placed in the vial and the two mixtures are stirred for 24 hours, after which the samples are filtered using a glass filter membrane. The resulting filtrate is centrifuged in a glass conical tube for 10 minutes at 10,000 rpm to sediment any precipitate that may have passed through the glass membrane. The supernatant is sampled for HPLC analysis. The concentration of the test compound is determined by HPLC using a six-point standard curve of the compound prepared in methanol.

Row | SMILES | solubility at 24 h
1 | CC1(C)[C@@H](O)CC[C@]2(C)[C@H]3Cc4cc(O)cc(O)c4[C@]3(C)CC[C@@H]12 [Compound 16b, (3S,4aR,6aR,11aR,11bR)-2,3,4,4a,5,6,6a,11,11a,11b-decahydro-4,4,6a,11b-tetramethyl-1H-benzo[a]fluorene-3,7,9-triol] | 133 µg/mL (≈ 402 µM)
2 | CC1(C)[C@H]2CC[C@]3(C)c4c(O)cc(O)cc4C[C@H]3[C@]2(C)CC[C@@H]1N.Cl [8a•HCl, (3S,4aS,6aS,11aS,11bS)-3-Amino-4,4,6a,11b-tetramethyl-2,3,4,4a,5,6,6a,11,11a,11b-decahydro-1H-benzo[a]fluorene-7,9-diol Hydrochloride] | 1400 µg/mL

Target: T1, His-hSHIP1 enzyme (Homo sapiens, UniProt Q92835)
T1 construct: His
T1 sequence (Q92835 1-1189): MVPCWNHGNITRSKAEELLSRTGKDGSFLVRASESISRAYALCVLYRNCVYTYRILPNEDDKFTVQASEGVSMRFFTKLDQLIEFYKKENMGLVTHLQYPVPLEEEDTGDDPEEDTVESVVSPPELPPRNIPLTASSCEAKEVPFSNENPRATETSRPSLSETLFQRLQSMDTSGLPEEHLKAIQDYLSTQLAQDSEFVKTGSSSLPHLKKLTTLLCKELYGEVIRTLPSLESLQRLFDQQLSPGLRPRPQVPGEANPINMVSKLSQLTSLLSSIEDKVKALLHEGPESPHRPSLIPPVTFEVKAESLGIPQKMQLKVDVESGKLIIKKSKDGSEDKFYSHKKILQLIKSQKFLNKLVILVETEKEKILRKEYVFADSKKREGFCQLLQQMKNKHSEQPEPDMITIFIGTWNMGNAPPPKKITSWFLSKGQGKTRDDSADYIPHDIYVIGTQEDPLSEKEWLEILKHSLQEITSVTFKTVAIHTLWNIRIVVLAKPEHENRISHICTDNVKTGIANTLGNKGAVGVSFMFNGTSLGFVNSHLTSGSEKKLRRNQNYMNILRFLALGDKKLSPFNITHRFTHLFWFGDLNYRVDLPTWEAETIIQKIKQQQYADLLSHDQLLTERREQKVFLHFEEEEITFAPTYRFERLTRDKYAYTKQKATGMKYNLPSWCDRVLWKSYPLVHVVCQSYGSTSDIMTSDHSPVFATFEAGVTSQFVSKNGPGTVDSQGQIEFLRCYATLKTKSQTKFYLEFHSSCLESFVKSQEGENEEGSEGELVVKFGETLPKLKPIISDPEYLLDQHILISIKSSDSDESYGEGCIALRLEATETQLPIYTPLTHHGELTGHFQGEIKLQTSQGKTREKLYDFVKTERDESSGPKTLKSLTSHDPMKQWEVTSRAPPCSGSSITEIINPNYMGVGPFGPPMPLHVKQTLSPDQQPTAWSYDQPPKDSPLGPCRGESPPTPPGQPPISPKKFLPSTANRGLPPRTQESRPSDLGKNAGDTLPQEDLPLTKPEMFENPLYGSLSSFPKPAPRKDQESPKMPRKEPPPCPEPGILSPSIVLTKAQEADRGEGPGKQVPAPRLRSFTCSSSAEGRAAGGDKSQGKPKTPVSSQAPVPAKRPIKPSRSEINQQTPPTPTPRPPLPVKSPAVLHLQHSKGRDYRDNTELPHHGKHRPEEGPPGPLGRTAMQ
Test: His-hSHIP1 enzyme activation assay (IP4 substrate, Biomol Green phosphate release)
Type: biochemical
Conditions: percentage increase relative to background; concentrations ≦300 μM
Description: Test compounds are dissolved in 95% ethanol to form stock solutions. Before screening, the stock solutions are diluted with Phosphatase Assay Buffer (20 mM Tris-HCL, 10 mM MgCl2 pH 7.5, 0.02% Tween 20) to form working assay solutions that contain 10% ethanol. The assay is carried out on 96-well microtiter plates using a modified procedure of that reported by Ong et al., Blood 110, 1942-1949, 2007 and Yang et al., Org Lett 7, 1073-1076, 2005, both of which references are incorporated herein by reference in their entirety.
Each reaction contains 5 μL of His-hSHIP1 enzyme (15-20 ng), 10 μL of the substrate, 1,3,4,5-inositol tetrakisphosphate (IP4; 50 μM final), 5 μL of Phosphatase Assay Buffer, and 5 μL of test compound at various concentrations in 10% ethanol (0-300 μM final). Control blanks are also prepared by replacing His-hSHIP1 enzyme, IP4, or test compounds with Phosphatase Assay Buffer. After adding the reaction components in a 96-well microtiter plate on ice, the reaction is mixed by briefly shaking the plate vigorously. The reaction is then incubated at 37° C. for 15 min with gentle shaking followed by addition of 100 μL of Biomol Green Reagent (BIOMOL, PA, USA) to terminate the reaction. The free phosphate released from IP4 by His-hSHIP1 binds to the Biomol Green Reagent, which turns the dye to green color. After incubating the mixture for 20 min at room temperature for color development, the absorbance is read with SpectraMax Plus 96-well plate reader (Molecular Devices, Sunnyvale, Calif., USA) at a wavelength of 650 nm.
Percent (%) activation in Table 2 is expressed as a percentage increase relative to background. Scoring is expressed as follows: +(<25%); ++(≧25% but <50%); +++(≧50%).

Row | SMILES | Activation of His-hSHIP1 Enzyme, Scoring (percent activation)
3 | COc1cc(C)c2c(c1)C[C@H]1[C@]3(C)CC[C@@H](O)C(C)(C)[C@H]3CC[C@]21C (racemic) [17a/17b] | ++ (≧25% but <50%)
4 | COc1cc2c(c(OC)c1)[C@@]1(C)CC[C@@H]3C(C)(C)[C@H](O)CC[C@@]3(C)[C@@H]1C2 (racemic) [5a/5b] | ++ (≧25% but <50%)
5 | CC1(C)[C@H]2CC[C@]3(C)c4c(O)cc(O)cc4C[C@H]3[C@]2(C)CC[C@@H]1N.Cl [8a•HCl, (3S,4aS,6aS,11aS,11bS)-3-Amino-4,4,6a,11b-tetramethyl-2,3,4,4a,5,6,6a,11,11a,11b-decahydro-1H-benzo[a]fluorene-7,9-diol Hydrochloride] | + (<25%)
6 | CC1(C)[C@H](O)CC[C@]2(C)[C@@H]1CC[C@]1(C)c3c(O)cc(O)cc3C[C@@H]21 (racemic) [16a/16b] | ++ (≧25% but <50%)
7 | Cc1cc(O)cc2c1[C@@]1(C)CC[C@@H]3C(C)(C)C(=O)CC[C@@]3(C)[C@@H]1C2 (racemic) [19a/19b] | ++ (≧25% but <50%)
8 | CC1(C)[C@@H](N)CC[C@]2(C)[C@H]3Cc4cc(O)cc(O)c4[C@]3(C)CC[C@@H]12 [Compound 9b] | + (<25%)
9 | CC1(C)C(=O)CC[C@]2(C)[C@@H]1CC[C@]1(C)c3c(O)cc(O)cc3C[C@@H]21 (racemic) [7a/7b] | +++ (≧50%)

From US9000050B2, “SHIP1 modulators and related methods” (The University of British Columbia, priority 2010, dated 2015)
